Assay: xn = mol fraction of the nth substance listed

C[N+](C)(C)CCO.[Cl-] + CC(O)CO
Details	viscosity [mPa·s]
293.15 K, 100 kPa, x1 = 0.25	89.38
293.15 K, 101 kPa, x2 = 0.8	95.09
293.15 K, 101.3 kPa, x2 = 0.7498	94.05
293.15 K, 101.3 kPa, x2 = 0.8003	80.19
293.15 K, 101.3 kPa, x2 = 0.8328	73.34
293.15 K, 101.3 kPa, x2 = 0.8567	70.57
298 K, 100 kPa, x1 = 0.333	95.5
298 K, 101.3 kPa, x1 = 0.333	70
298.15 K, 100 kPa, x1 = 0.25	68.43
298.15 K, 101.3 kPa, x2 = 0.7498	72.1
298.15 K, 101.3 kPa, x2 = 0.8003	61.49
298.15 K, 101.3 kPa, x2 = 0.8328	57.12
298.15 K, 101.3 kPa, x2 = 0.8567	55.1
298.15 K, 101.33 kPa, x2 = 0.7	36
303 K, 100 kPa, x1 = 0.333	74.2
303.15 K, 100 kPa, x1 = 0.25	53.34
303.15 K, 101 kPa, x2 = 0.8	56.64
303.15 K, 101.3 kPa, x2 = 0.7498	56.26
303.15 K, 101.3 kPa, x2 = 0.8003	47.74
303.15 K, 101.3 kPa, x2 = 0.8328	44.41
303.15 K, 101.3 kPa, x2 = 0.8567	43.01
308 K, 100 kPa, x1 = 0.333	57.6
308.15 K, 100 kPa, x1 = 0.25	42.26
308.15 K, 101.3 kPa, x2 = 0.7498	44.5
308.15 K, 101.3 kPa, x2 = 0.8003	37.47
308.15 K, 101.3 kPa, x2 = 0.8328	34.61
308.15 K, 101.3 kPa, x2 = 0.8567	33.33
313 K, 100 kPa, x1 = 0.333	46.2
313.15 K, 100 kPa, x1 = 0.25	33.93
313.15 K, 101 kPa, x2 = 0.8	36.06
313.15 K, 101.3 kPa, x2 = 0.7498	35.89
313.15 K, 101.3 kPa, x2 = 0.8003	30.4
313.15 K, 101.3 kPa, x2 = 0.8328	27.67
313.15 K, 101.3 kPa, x2 = 0.8567	26.42
318 K, 100 kPa, x1 = 0.333	37.9
318.15 K, 100 kPa, x1 = 0.25	27.71
318.15 K, 101.3 kPa, x2 = 0.7498	29.15
318.15 K, 101.3 kPa, x2 = 0.8003	24.7
318.15 K, 101.3 kPa, x2 = 0.8328	22.49
318.15 K, 101.3 kPa, x2 = 0.8567	21.11
323 K, 100 kPa, x1 = 0.333	31.8
323 K, 101.3 kPa, x1 = 0.333	19
323.15 K, 100 kPa, x1 = 0.25	22.88
323.15 K, 101 kPa, x2 = 0.8	24.26
323.15 K, 101.3 kPa, x2 = 0.7498	24.25
323.15 K, 101.3 kPa, x2 = 0.8003	20.43
323.15 K, 101.3 kPa, x2 = 0.8328	18.56
323.15 K, 101.3 kPa, x2 = 0.8567	17.41

Cc1ccc(C)cc1 + CCC(C)O
308.15 K, 101 kPa
Details	viscosity [mPa·s]
x2 = 0.0429	0.553
x2 = 0.1028	0.562
x2 = 0.2013	0.591
x2 = 0.3192	0.645
x2 = 0.4044	0.721
x2 = 0.5085	0.792
x2 = 0.6631	0.932
x2 = 0.7494	1.111
x2 = 0.8285	1.32
x2 = 0.9012	1.61
x2 = 0.9684	1.782

CC(C)CCCC(C)CCCC(C)CCCCC(C)CCCC(C)CCCC(C)C (configuration not stated) + CCCC
viscosity [mPa·s]
Details	x1 = 0.161	x1 = 0.162	x1 = 0.316	x1 = 0.319	x1 = 0.555	x1 = 0.559	x1 = 0.721	x1 = 0.724
293.15 K, 101 kPa	1.06	–	3	–	9.55	–	16.5	–
293.15 K, 101.33 kPa	1.06	–	3	–	9.55	–	16.5	–
313.15 K, 101 kPa	–	0.797	–	2.04	–	5.26	–	8.16
313.15 K, 101.33 kPa	–	0.797	–	2.04	–	5.26	–	8.16

C=C(C)C(=O)OCCCCCCC + CCCCCC
viscosity [mPa·s], 101 kPa
Details	x1 = 0.002	x1 = 0.005	x1 = 0.01	x1 = 0.02
303 K	0.2814	0.2918	0.2946	0.3052
313 K	0.2567	0.2692	0.2692	0.2801
323 K	0.2346	0.2442	0.247	0.2568
